Source: patent US9260485B2 (priority 2009, dated 2016)

What was measured:
Assay in all cases: Multidrug resistance-reversing activity: effect on paclitaxel's cytotoxicity
Type in all cases: cell-based
HCT15 = details: Homo sapiens, HCT-15, TAX alone
Procedure: (§1) The cyclic pentadepsipeptides of Chemical Formulas 1 and 2 were analyzed for MDR-reversing activity by comparing inhibitory activities against multidrug-resistant cancer cell lines (MES-SA/DX5 and HCT15/CL02) with those against non-multidrug-resistant cancer cell lines (MES-SA and HCT15). In this regard, the effects of the cyclic pentadepsipeptides of Chemical Formulas 1 and 2 on paclitaxel's cytotoxicity against MDR tumor cells were measured (Table 6).

MES-SA/DX5 = details: Homo sapiens, TAX alone
Procedure: as §1

MES-SA = details: Homo sapiens, TAX alone
Procedure: as §1

HCT15/CL02 = details: Homo sapiens, HCT-15, TAX alone
Procedure: as §1

CC(=O)O[C@H]1C(=O)[C@@]2(C)[C@H]([C@H](OC(=O)c3ccccc3)[C@]3(O)C[C@H](OC(=O)[C@H](O)[C@@H](NC(=O)c4ccccc4)c4ccccc4)C(C)=C1C3(C)C)[C@]1(OC(C)=O)CO[C@@H]1C[C@@H]2O [TAX, paclitaxel]
EC50 (HCT15): 0.85 ± 0.63 nM
EC50 (MES-SA/DX5): 10 ± 0.53 nM
EC50 (MES-SA): 1 ± 0.2 nM
EC50 (HCT15/CL02): > 1000 nM
